As usually defined, the IC50 is the concentration that inhibits the measured activity by half.

Consider 21 compounds from patent US9650339B2, “Inhibitors of histone demethylases” (Gilead Sciences, Inc., priority 2013, dated 2017).

The structures appear in SMILES notation.

One experiment deals with T1, KDM4B (JMJD2B) (Homo sapiens, UniProt O94953).
T1 construct: 2-500; purchased BPS; host or cells: Bac (baculovirus system)
T1 sequence (O94953 2-500): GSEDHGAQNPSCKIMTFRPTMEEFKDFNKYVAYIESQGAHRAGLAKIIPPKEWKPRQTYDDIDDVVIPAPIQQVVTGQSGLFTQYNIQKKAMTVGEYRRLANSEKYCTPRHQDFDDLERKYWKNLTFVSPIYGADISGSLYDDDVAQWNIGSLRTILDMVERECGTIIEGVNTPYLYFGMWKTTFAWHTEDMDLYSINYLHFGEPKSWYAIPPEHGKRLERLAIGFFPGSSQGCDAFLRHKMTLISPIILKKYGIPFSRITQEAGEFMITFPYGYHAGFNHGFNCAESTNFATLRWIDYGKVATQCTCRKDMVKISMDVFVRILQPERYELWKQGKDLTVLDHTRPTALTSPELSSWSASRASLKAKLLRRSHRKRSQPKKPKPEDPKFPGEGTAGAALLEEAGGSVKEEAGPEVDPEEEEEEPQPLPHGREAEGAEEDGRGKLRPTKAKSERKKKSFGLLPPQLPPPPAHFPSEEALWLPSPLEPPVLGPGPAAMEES
The experiment can be described thus: Histone lysine demethylase AlphaLISA assay, KDM4B. The experiment is classed as biochemical. Particulars: read-out: KDM4B HDME Inhibition IC50. The gist of the method:
(§1)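 AlphaLISA demethylation readout: enzyme preincubated 10 min, then 10 min with compounds in 3% DMSO buffer, before biotinylated methyl-lysine histone peptide substrate with 25 μM L-Asc and 10 μM α-KG, room temperature. Acceptor beads then streptavidin donor beads added, dark incubation, plates read.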

Another experiment deals with KDM6A (UTX) (Homo sapiens, UniProt O15550). The experiment can be described thus: Histone lysine demethylase AlphaLISA assay, KDM6A. The experiment is classed as biochemical. Particulars: read-out: KDM6A HDME Inhibition IC50. In a few lines: as §1
Sequence of KDM6A (UTX) (O15550 919-1401): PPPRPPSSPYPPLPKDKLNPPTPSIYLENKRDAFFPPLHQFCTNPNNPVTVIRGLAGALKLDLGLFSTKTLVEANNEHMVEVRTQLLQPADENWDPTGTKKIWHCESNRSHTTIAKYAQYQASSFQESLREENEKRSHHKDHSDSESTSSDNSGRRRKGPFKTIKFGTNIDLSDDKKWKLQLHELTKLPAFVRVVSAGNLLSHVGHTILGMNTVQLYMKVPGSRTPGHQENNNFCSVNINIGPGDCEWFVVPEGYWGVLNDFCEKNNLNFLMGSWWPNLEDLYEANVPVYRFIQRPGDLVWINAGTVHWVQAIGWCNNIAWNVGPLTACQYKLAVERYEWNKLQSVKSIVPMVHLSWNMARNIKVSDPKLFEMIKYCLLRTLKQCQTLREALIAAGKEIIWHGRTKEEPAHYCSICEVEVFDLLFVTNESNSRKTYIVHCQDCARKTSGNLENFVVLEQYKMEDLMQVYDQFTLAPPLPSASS
(Bead proximity is the source of the signal in Alpha formats.)

A further experiment deals with T2, KDM4C (Homo sapiens, UniProt Q9H3R0).
T2 construct: Full length; host or cells: U2OS
T2 sequence (Q9H3R0 1-1056): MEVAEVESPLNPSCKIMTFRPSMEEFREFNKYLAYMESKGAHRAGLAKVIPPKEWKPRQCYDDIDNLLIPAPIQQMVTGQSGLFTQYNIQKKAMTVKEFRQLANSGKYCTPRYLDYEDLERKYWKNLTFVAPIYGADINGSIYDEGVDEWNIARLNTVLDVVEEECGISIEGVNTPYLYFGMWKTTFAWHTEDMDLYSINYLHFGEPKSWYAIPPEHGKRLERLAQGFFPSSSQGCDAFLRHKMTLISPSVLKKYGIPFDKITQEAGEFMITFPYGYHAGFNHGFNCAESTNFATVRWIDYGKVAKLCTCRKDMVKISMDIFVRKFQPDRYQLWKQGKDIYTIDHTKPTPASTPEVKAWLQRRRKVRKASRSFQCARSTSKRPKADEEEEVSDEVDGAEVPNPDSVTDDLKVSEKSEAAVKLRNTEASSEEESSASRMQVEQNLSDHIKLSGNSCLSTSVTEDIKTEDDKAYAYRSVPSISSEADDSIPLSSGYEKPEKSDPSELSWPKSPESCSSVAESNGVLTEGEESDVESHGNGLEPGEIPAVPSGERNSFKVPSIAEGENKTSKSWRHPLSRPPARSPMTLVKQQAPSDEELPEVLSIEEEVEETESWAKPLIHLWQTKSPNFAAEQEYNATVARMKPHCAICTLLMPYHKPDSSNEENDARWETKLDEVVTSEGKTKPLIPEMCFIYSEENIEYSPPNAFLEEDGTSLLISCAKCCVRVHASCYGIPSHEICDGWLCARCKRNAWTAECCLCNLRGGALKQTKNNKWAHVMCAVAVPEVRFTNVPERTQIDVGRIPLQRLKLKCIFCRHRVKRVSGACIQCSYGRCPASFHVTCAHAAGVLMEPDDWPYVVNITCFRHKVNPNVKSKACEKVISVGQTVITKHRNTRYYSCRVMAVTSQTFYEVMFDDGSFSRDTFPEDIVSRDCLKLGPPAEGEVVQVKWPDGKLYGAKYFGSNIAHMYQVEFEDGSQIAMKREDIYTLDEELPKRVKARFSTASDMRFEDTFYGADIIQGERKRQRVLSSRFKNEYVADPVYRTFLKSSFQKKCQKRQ
The experiment can be described thus: Histone lysine demethylase immunofluorescence assay, U2OS cells transfected with KDM4C. It counts as cell-based. The conditions noted are these: U2OS cells transfected with pCMVHA KDM4C; mark detected H3K9me3; 20 hours. The gist of the method: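 U2OS cells were transiently transfected with HA-tagged demethylase and reseeded after 6 h into compound-containing DMEM/10% FBS for 20 h. Cells were fixed in formaldehyde and immunostained for HA and the relevant histone methyl mark, then imaged. IC50 is based on mean mark staining in HA+ transfected cells.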

In the case of `CN(CCCn1cccn1)C(=O)CNCc1cc(/C=N/C2CC2)ccn1` [Compound 52, 2-[({4-[N-cyclopropyl-carboximidoyl]-pyridin-2-yl}methyl)amino]-N-methyl-N-[3-(1H-pyrazol-1-yl)propyl]acetamide], the IC50 on KDM4B (JMJD2B) is less than 250 nM; on KDM6A (UTX) it was greater than 2500 nM; against KDM4C, greater than 2500 nM.

`O=C(CNCc1cc(/C=N/C2CC2)ccn1)NC1CCN(Cc2ccccc2)C1` (stereo not drawn) [Compound 53, N-(1-benzylpyrrolidin-3-yl)-2-[({4-[N-cyclopropyl-carboximidoyl]pyridin-2-yl}methyl)amino]-acetamide]: the IC50 on KDM4B (JMJD2B) is less than 250 nM; on KDM6A (UTX) it was greater than 2500 nM; on KDM4C it was greater than 2500 nM.

For the compound `CN1CCN(C(=O)CNCc2cc(/C=N/C3CC3)ccn2)CC1` [Compound 54, 2-[({4-[N-cyclopropyl-carboximidoyl]-pyridin-2-yl}methyl)amino]-1-(4-methylpiperazin-1-yl)ethan-1-one], the IC50 is 250 to 2500 nM on KDM4B (JMJD2B), greater than 2500 nM at KDM6A (UTX) and greater than 2500 nM on KDM4C.

Take `O=C(CNCc1cc(/C=N/C2CC2)ccn1)N1CCC(Cc2ccccc2)CC1` [Compound 55, 1-(4-benzylpiperidin-1-yl)-2-[({4-[N-cyclopropyl-carboximidoyl]-pyridin-2-yl}methyl)amino]-ethan-1-one]: the IC50 is less than 250 nM on KDM4B (JMJD2B), greater than 2500 nM at KDM6A (UTX) and greater than 2500 nM at KDM4C.

`C#CCN(C)C(=O)CNCc1cc(/C=N/C2CC2)ccn1` [Compound 56, 2-[({4-[N-cyclopropyl-carboximidoyl]-pyridin-2-yl}methyl)amino]-N-methyl-N-(prop-2-yn-1-yl)acetamide]: the IC50 was 250 to 2500 nM at KDM4B (JMJD2B), greater than 2500 nM on KDM6A (UTX) and greater than 2500 nM at KDM4C.

On to `CCN(CC)CCCCNCc1cc(/C=N/CCO)ccn1` [Compound 61, 2-[{[2-({[4-(diethylamino)-butyl]amino}-methyl)pyridin-4-yl]methylidene}-amino]ethan-1-ol], for which the IC50 at KDM4B (JMJD2B) is less than 250 nM; on KDM6A (UTX), greater than 2500 nM; against KDM4C, 250 to 2500 nM.

On to `CCN(CC)CCCCNCc1cc(/C=N/CC(F)(F)C(F)(F)F)ccn1` [Compound 62, {[2-({[4-(diethylamino)-butyl]amino}methyl)pyridin-4-yl]methylidene} (2,2,3,3,3-pentafluoropropyl)-amine], for which the IC50 on KDM4B (JMJD2B) is 250 to 2500 nM; at KDM6A (UTX), greater than 2500 nM; against KDM4C, 250 to 2500 nM.

As to `CCN(CCN(C)C)C(=O)CNCc1cc(/C=N/CCC2CCCCC2)ccn1` [Compound 63, 2-[({4-[[(2-cydohexylethyl)-imino]methyl]pyridin-2-yl}methyl)amino]-N-[2-(dimethylamino)-ethyl]-N-ethylacetamide], the IC50 on KDM4B (JMJD2B) was 250 to 2500 nM; at KDM6A (UTX), greater than 2500 nM; at KDM4C, 250 to 2500 nM.

Regarding `CON=Cc1ccnc(CNCCCN(C)C)c1` [Compound 64, [3-(dimethylamino)-propyl]({4-[(methoxyimino)-methyl]pyridin-2-yl}methyl)amine], the values for the concentration for half-maximal inhibition (IC50) on KDM4B (JMJD2B), on KDM6A (UTX) and on KDM4C were less than 250 nM, greater than 2500 nM and greater than 2500 nM, respectively.

As to `CCN(CC)CCCCNCc1cc(C2NCCN2C)ccn1` (stereo not drawn) [Compound 65, [4-(diethylamino)-butyl]({[4-(1-methylimidazolidin-2-yl)pyridin-2-yl]methyl})amine], the IC50 on KDM4B (JMJD2B), on KDM6A (UTX) and at KDM4C was greater than 2500 nM each time.

In the case of `CCN(CCN(C)C)C(=O)CNCc1cc(/C=N/CCO)ccn1` [Compound 66], the IC50 on KDM4B (JMJD2B) is less than 250 nM; on KDM6A (UTX) it was greater than 2500 nM; against KDM4C, 250 to 2500 nM.

Regarding `CCN(CC)CCCCNCc1cc(/C=N\CCC2CCCCC2)ccn1` [Compound 67, (2-cyclohexylethyl)-({[2-({[4-(diethylamino)-butyl]amino}methyl)pyridin-4-yl]methylidene})-amine], the IC50 at KDM4B (JMJD2B) was greater than 2500 nM; at KDM6A (UTX), greater than 2500 nM; at KDM4C, 250 to 2500 nM.

For `CN(C)C/C=C/CNCc1cc(C=O)ccn1` [Compound 98, 2-({[(2E)-4-(dimethylamino)but-2-en-1-yl]amino}-methyl)pyridine-4-carbaldehyde], the figures for the half-inhibitory concentration (IC50) at KDM4B (JMJD2B), on KDM6A (UTX) and against KDM4C were greater than 2500 nM, greater than 2500 nM and 250 to 2500 nM, respectively.

With `CCN(CCN(C)C)C(=O)CNCc1cc(C=O)ccn1` [Compound 101], the figures for the IC50 on KDM4B (JMJD2B), on KDM6A (UTX) and at KDM4C were less than 250 nM, greater than 2500 nM and 250 to 2500 nM, respectively.

`O=Cc1ccnc(CNCC(=O)N2CCC[C@@H]2CN2CCCC2)c1` [Compound 102, 2-[({2-oxo-2-[(2R)-2-(pyrrolidin-1-ylmethyl)pyrrolidin-1-yl]ethyl}amino)-methyl]pyridine-4-carbaldehyde]: the IC50 at KDM4B (JMJD2B) is 250 to 2500 nM; at KDM6A (UTX) it was greater than 2500 nM; at KDM4C, 250 to 2500 nM.

As to `CN1CCN(C(=O)CNCc2cc(C=O)ccn2)CC1` [Compound 103, 2-({[2-(4-methylpiperazin-1-yl)-2-oxoethyl]-amino}methyl)-pyridine-4-carbaldehyde], the IC50 at KDM4B (JMJD2B), at KDM6A (UTX) and on KDM4C was greater than 2500 nM in each case.

Take `CCN1CCCC1CNC(=O)CNCc1cc(C=O)ccn1` (stereo not drawn) [Compound 104, N-[(1-ethylpyrrolidin-2-yl)methyl]-2-{[(4-formylpyridin-2-yl)methyl]amino}-acetamide]: the IC50 on KDM4B (JMJD2B) is less than 250 nM; at KDM6A (UTX), greater than 2500 nM; against KDM4C, greater than 2500 nM.

On to `CCN(CC)C(=O)CNCc1cc(C=O)ccn1` [Compound 105, N,N-diethyl-2-{[(4-formylpyridin-2-yl)methyl]amino}-acetamide], for which the IC50 at KDM4B (JMJD2B) is less than 250 nM; on KDM6A (UTX) it was greater than 2500 nM; against KDM4C, greater than 2500 nM.

For the compound `O=Cc1ccnc(CNCC(=O)N2CCC(Cc3ccccc3)CC2)c1` [Compound 106, 2-({[2-(4-benzylpiperidin-1-yl)-2-oxoethyl]-amino}methyl)-pyridine-4-carbaldehyde], the IC50 at KDM4B (JMJD2B) is less than 250 nM; at KDM6A (UTX) it was greater than 2500 nM; on KDM4C, greater than 2500 nM.

As to `CCN(CC)CCCCNCc1cc(C=O)ccn1` [Compound 107, 2-({[4-(diethylamino)-butyl]amino}-methyl)pyridine-4-carbaldehyde], the IC50 is less than 250 nM on KDM4B (JMJD2B), greater than 2500 nM on KDM6A (UTX) and 250 to 2500 nM against KDM4C.

With `O=Cc1ccnc(CNCCCN2CCCC2)c1` [Compound 111, 2-({[3-(pyrrolidin-1-yl)propyl]amino}-methyl)pyridine-4-carbaldehyde], the IC50 is 250 to 2500 nM at KDM4B (JMJD2B), greater than 2500 nM on KDM6A (UTX) and greater than 2500 nM against KDM4C.
